Laboratory results from article PMC12198407, “Preclinical and first-in-human of purinostat mesylate, a novel selective HDAC I/IIb inhibitor, in relapsed/refractory multiple myeloma and lymphoma” (Signal Transduction and Targeted Therapy, 2025).
Where two headings read alike, the source gives them in different places.

What was measured:
HDAC11 = HDAC11 (Homo sapiens, UniProt Q96DB2); experiment: HDAC enzyme activity in vitro; type: biochemical
[1] = tested on: double-expressing lymphoma (DEL) PDX; experiment: DEL PDX mouse model; type: in vivo, mice; settings: 18 days; PM 5 mg/kg or 10 mg/kg
Method: All animal studies were performed in accordance with the guidelines approved by the Institutional Animal Care and Use Committee of Sichuan University, Chengdu, China. Six- to seven-week-old female NOD-SCID mice were purchased from Beijing Vital River Laboratory Animal Technology Co., Ltd. (China). Mice received subcutaneous inoculation with 0.5 × 10^7 MM1S or RPMI-8226 cells, to establish xenograft models. Heterotopic PDX models were generated as previously described.[54] When tumors reached 150–250 mm^3, mice were treated with various compounds. PM and panobinostat were administered intravenously three times a week at 5 mg/kg in combination therapy. […] Tumor volume (tumor volume (mm^3) = π/6 × length × width^2) and body weights were measured every two days. At the end, tumor tissues were weighed, and antitumor activity was evaluated by the tumor inhibition rate = (1 − tumor weight of treatment group/tumor weight of vehicle group) × 100%.

Raji-luc = experiment: Luciferase substrate viability assay; type: cell-based, human
[2] = Chronic toxicity test, intravenous; type: in vivo, Beagle dogs
Method: In this study, the low, medium, and high dose groups were set at 0.3, 1, and 3 mg/kg, respectively. The excipient was set at a high dose of 45 mg/kg. In the low dose group, occasional vomiting was observed; in the medium dose group, symptoms included vomiting, loose stools, and dark red stools; in the high dose group, symptoms included vomiting and dark red stools. Four dogs (4/10, 2 females and 2 males) died between days 13 and 26 of the experiment. […] The primary toxic target organs or systems included the immune system (spleen, thymus, lymph nodes), digestive system (esophagus, liver, pancreas, intestine), kidneys, heart, lungs, trachea, testes, bone marrow, and injection site. There was a dose-dependent relationship, and recovery was observed during the recovery period. The highest no serious toxicity dose (HNSTD) was determined to be 1 mg/kg.

[3] = Bone marrow micronucleus test; type: in vivo, NIH mice; settings: 20, 40, 60, 80 mg/kg i.v. daily for 3 days
Method: In this experiment, 90 SPF-grade NIH mice (half male and half female) were randomly divided into 7 groups: a negative control group (0.9% sodium chloride injection, intravenous injection, 10 mL/kg), an excipient control group (blank formulation, intravenous injection, 10 mL/kg), a positive control group (cyclophosphamide 40 mg/kg, intraperitoneal injection, 10 mL/kg), and four groups for intravenous injection of Purinostat Mesylate at low, medium, high, and highest doses (20, 40, 60, and 80 mg/kg, intravenous injection, 10 mL/kg). The negative control and positive control groups each consisted of 20 mice, while the other groups each consisted of 10 mice, with an equal number of males and females. Mice in each group were administered the specified doses once daily for 3 consecutive days, while the positive control group received only a single dose. Twenty to twenty-four hours after the last administration, all mice in each group were euthanized, and femoral bone marrow smears were prepared. The smears were stained with Giemsa and observed under an oil immersion microscope. For each mouse, 4000 polychromatic erythrocytes (PCEs) were counted to calculate the micronucleus incidence (‰), while 500 bone marrow erythrocytes were counted to determine the ratio of polychromatic erythrocytes to total erythrocytes.

[4] = Metabolite profiling in plasma, bile, urine, feces; type: in vivo, SD rats; settings: for share of plasma AUC0-96h: [14C] 3 mg/100 µCi/kg i.v.; for amount in bile, % of administered dose: 0 to 72 hours; for amount in feces, % of administered dose / amount in urine, % of administered dose: 0 to 168 hours
Method: Following a single intravenous administration of [14C] Purinostat Mesylate at a dose of 3 mg/100 µCi/kg in male and female rats, a total of 14 metabolites were identified, in addition to the parent compound. These were designated as M382, M396, M474, M475, M490, M516, M517, M532, M546, M548, M558, M666, M708a, and M708b. Among these, M382 is an acetylated product of the parent drug after N-dealkylation, M396 is a carboxylic acid derivative of M382, M474 is a reduction product of the parent drug, M475 is a hydroxylated product derived from the amino conversion of M474, M490 is a mono-oxidation product of M474, M516 is an acetylated product of M474, M517 is a hydroxylated product derived from the amino conversion of M516, M532 is an acetylated product of the parent drug, M546 is a methylated product of M532, M548 is a dioxidation product of M516, M558 is a glucuronic acid conjugate of M382, M666 is a glucuronic acid conjugate of the parent drug, M708a is a mono-oxidation glucuronic acid conjugate of M516, and M708b is a glucuronic acid conjugate of M532.

[5] = Pharmacokinetics and tissue distribution in Ighmyc mice; type: in vivo
Description: In B cell-related tumors, the mechanism of disease often involves the translocation of the MYC oncogene to the immunoglobulin promoter region, leading to its hyperactivation. The translocation of the MYC gene to the IGH enhancer (t(8;14) (q24;q32)) is a molecular hallmark of Burkitt lymphoma. The Ighmyc (Eμ-myc) mouse model successfully mimics this pathogenic mechanism by translocating the MYC oncogene to the immunoglobulin μ enhancer. […] We isolated bone marrow and enlarged spleen from diseased Ighmyc mice and transplanted them into normal C57 mice via tail vein injection to induce a primary B cell lymphoma model. This study aims to investigate the pharmacokinetic characteristics and tissue distribution of Purinostat Mesylate in plasma and target organs in the context of primary B cell lymphoma.
The mean residence times (MRT) were 6.00 ± 1.00 h, 24.8 ± 1.03 h, and 23.4 ± 3.59 h, respectively. […] However, in Ighmyc mice, the plasma drug concentration after the same duration was 7.11 ± 3.15 ng/mL. […] The pharmacokinetic characteristics support the notion that spaced dosing of the drug can still maintain favorable pharmacodynamic outcomes.

Chain of HDAC11 (Q96DB2 whole entry): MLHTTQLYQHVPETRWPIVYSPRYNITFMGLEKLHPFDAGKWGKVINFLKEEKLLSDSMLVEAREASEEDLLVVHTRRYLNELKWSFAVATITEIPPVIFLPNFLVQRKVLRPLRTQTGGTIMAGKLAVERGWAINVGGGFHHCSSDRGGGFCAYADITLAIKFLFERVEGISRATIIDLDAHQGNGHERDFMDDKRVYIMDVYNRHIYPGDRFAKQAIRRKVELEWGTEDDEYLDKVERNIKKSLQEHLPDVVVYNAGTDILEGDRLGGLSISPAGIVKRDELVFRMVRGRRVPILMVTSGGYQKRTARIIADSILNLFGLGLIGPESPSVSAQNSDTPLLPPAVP
Description for in vivo: According to the "Guidelines for the Clinical Trial of Antineoplastic Drugs," for cytotoxic agents, the maximum recommended starting dose (MRSD) can be determined as one-tenth of the maximum tolerated dose (MTD) in rodent studies or one-sixth of the MTD in non-rodent species, expressed in mg/m². For some non-cytotoxic antineoplastic agents, due to their relatively lower toxicity, the starting dose for single administration in Phase I clinical trials can be calculated using one-fifth of the No Observed Adverse Effect Level (NOAEL) from non-rodent studies, or higher.
The Pharmacological Active Dose (PAD) based on mice is used to predict the minimum dose that may produce the expected pharmacological effect in humans.

CN(Cc1nc2c(N3CCOCC3)nc(-c3ccc(N)cc3)nc2n1C)c1ncc(C(=O)NO)cn1.CS(=O)(=O)O [PM, 2-(((2-(4-Aminophenyl)-9-methyl-6-(4-morpholinyl)-9H-purine-8-yl)methyl)methylamino)-N-hydroxy-5-pyrimidine-carboxamide Mesylate]
IC50 (HDAC11): 3.35 µM | complete remission [1]: all mice achieved complete remission | time until effect detectable (Raji-luc): 36 h | NOAEL ([2]; both sexes, beagle, dog, in vivo, intravenous): < 0.3 mg/kg | highest no serious toxicity dose (HNSTD) ([2]; both, beagle, dog, in vivo, intravenous): 1 mg/kg | dogs that died ([2]; high dose 3 mg/kg, days 13 to 26): 4/10 | prolongation of QTc ([2]; high dose group, male dogs): 9.6% | bone marrow micronucleus test result [3]: negative | share of plasma AUC0-96h ([4]; female rats): 11.15% | amount in bile, % of administered dose ([4]; females): 2.45% | amount in feces, % of administered dose ([4]; females): 0.84% | amount in urine, % of administered dose ([4]; females): 0.35% | share of plasma AUC0-96h ([4]; male rats): 8.79% | amount in bile, % of administered dose ([4]; males): 2.47% | amount in feces, % of administered dose ([4]; males): 0.94% | amount in urine, % of administered dose ([4]; males): 0.66% | abnormal B220+/IgM- cell population in peripheral blood ([5]; 48 hours after single i.v. 5 mg/kg, untreated 48.9%): about 18.8% | AUC(0-t) ([5]; Ighmyc (Eμ-myc), mouse, lymph node, iv, single i.v. 5 mg/kg, read-out: lymph node AUC(0-72h)): 16100 ± 2040 ng·h/mL | Cmax ([5]; Ighmyc (Eμ-myc), mouse, lymph nodes, iv, single i.v. 5 mg/kg, read-out: Cmax in lymph nodes): 578 ± 153 ng/mL | MRT ([5]; Ighmyc (Eμ-myc), mouse, lymph nodes, iv, single i.v. 5 mg/kg, read-out: MRT in lymph nodes): 23.4 ± 3.59 h | half-life ([5]; Ighmyc (Eμ-myc), mouse, lymph nodes, iv, single i.v. 5 mg/kg, read-out: T1/2 in lymph nodes (converted)): 21.9 ± 10.2 h | concentration at 48 h ([5]; Ighmyc (Eμ-myc), mouse, lymph nodes, iv, single i.v. 5 mg/kg, read-out: concentration in lymph nodes at 48 hours): 178 ± 46 ng/mL | Cmax ([5]; Ighmyc (Eμ-myc), mouse, plasma, iv, single i.v. 5 mg/kg, read-out: Cmax in plasma): 304 ± 277 ng/mL | MRT ([5]; Ighmyc (Eμ-myc), mouse, plasma, iv, single i.v. 5 mg/kg, read-out: MRT in plasma): 6 ± 1 h | half-life ([5]; Ighmyc (Eμ-myc), mouse, plasma, iv, single i.v. 5 mg/kg, read-out: T1/2 in plasma (converted)): 12.2 ± 2.1 h | AUC(0-t) ([5]; Ighmyc (Eμ-myc), mouse, plasma, iv, single i.v. 5 mg/kg, read-out: plasma AUC(0-48h)): 875 ± 437 ng·h/mL | concentration at 24 h ([5]; Ighmyc (Eμ-myc), mouse, plasma, iv, single i.v. 5 mg/kg, read-out: plasma drug concentration at 24 hours): 7.11 ± 3.15 ng/mL | Cmax ([5]; Ighmyc (Eμ-myc), mouse, spleen, iv, single i.v. 5 mg/kg, read-out: Cmax in spleen): 410 ± 69.9 ng/mL | MRT ([5]; Ighmyc (Eμ-myc), mouse, spleen, iv, single i.v. 5 mg/kg, read-out: MRT in spleen): 24.8 ± 1.03 h | half-life ([5]; Ighmyc (Eμ-myc), mouse, spleen, iv, single i.v. 5 mg/kg, read-out: T1/2 in spleen (converted)): 20.8 ± 7.94 h | concentration at 48 h ([5]; Ighmyc (Eμ-myc), mouse, spleen, iv, single i.v. 5 mg/kg, read-out: concentration in spleen at 48 hours): 134 ± 18.5 ng/mL | AUC(0-t) ([5]; Ighmyc (Eμ-myc), mouse, spleen, iv, single i.v. 5 mg/kg, read-out: spleen AUC(0-72h)): 12500 ± 244 ng·h/mL | plasma drug concentration at 24 hours ([5]; single i.v. 5 mg/kg, listed as Purinostat Mesylate, 5 mg/kg): 7.11 ng/mL | NOAEL (in vivo; beagle, dog): < 0.3 mg/kg | NOAEL (in vivo; rat): < 3 mg/kg
